From patent US20110166121A1 (LG LIFE SCIENCES LTD., priority 2008, published 2011)

molecular target: T1, Human P2Y12 receptor (Homo sapiens, UniProt Q9H244); experiment: Human P2Y12 receptor cell membrane binding assay with [3H] 2-Mes-ADP; settings: 1 nM [3H] 2-Mes-ADP, membranes of HEK cells expressing P2Y12 receptor; read-out: Binding activity (IC50)
T1 construct: expressed in transfected cells; host or cells: HEK cells
Protocol: Human P2Y12 Receptor Cell Membrane Binding Assay with [^3H] 2-Mes-ADP
Whether test compounds bind to P2Y12 receptor is measured by [3H]-2MesADP binding in HEK cells expressing P2Y12 receptor. The efficacy according to the amount of test compound can be known through the above test, competitive binding test to P2Y12 receptor, in which the binding material (2-Mes-ADP) is labeled with radioactivity isotope and then the extent of inhibition against the binding of radioactively labeled material is measured.
Preparation of P2Y12 Membrane Protein Fraction
Harvested P2Y12 cells were resuspended with Hypotonic buffer (10 mM HEPES, 10 mM NaCl, 1 mM EDTA, 1 mM EGTA pH 7.4) containing protease inhibitor cocktail. Following the incubation on ice for 15 min, cells were homogenized on ice (Glass/Teflon homogenizer; 1,000 rpm, 10 strokes). The supernant was taken from centrifugation at 500×g for 15 min and then recentrifuged the supernant at 30,000 rpm for 30 min. The membrane pellet was adjusted to 1 mg/mL concentration and stored at −80° C.
P2Y12 Receptor Cell Membrane Binding Assay with [3H] 2-Mes-ADP
The volume of 100 μL of 200 μg membrane protein was aliquoted into 96 well plate. 50 μL volume of test compounds and [^3H] 2-Mes-ADP (final: 1 nM) were added into each well. The total reaction of 0.2 ml/well was incubated for 1 hour at R.T. The reaction was terminated by filtration through GF/B filter using a 96-well cell harvester. […] Radioactivity bound to P2Y12 receptor membrane was counted in a scintillation counter. Total binding was determined with CPM of test group having no compound and non-specific binding was determined with CPM of test group containing 10 μM 2-Mes-ADP. Binding inhibition percent was calculated as follows: [100−(specific binding in the presence of test material/specific binding in the absence of test material×100)].

T1 sequence (Q9H244 whole entry): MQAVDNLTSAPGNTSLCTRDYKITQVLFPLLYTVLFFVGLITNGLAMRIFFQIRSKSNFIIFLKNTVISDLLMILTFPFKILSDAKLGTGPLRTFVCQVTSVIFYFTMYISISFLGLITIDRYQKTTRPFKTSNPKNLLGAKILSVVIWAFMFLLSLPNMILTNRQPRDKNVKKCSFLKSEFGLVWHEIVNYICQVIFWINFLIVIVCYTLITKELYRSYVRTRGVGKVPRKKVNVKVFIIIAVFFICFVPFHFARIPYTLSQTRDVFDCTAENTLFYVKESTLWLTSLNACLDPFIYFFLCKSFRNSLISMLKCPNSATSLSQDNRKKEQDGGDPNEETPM

Question: How did the IC50 turn out when CCc1cc2c(N3CCn4cc(C(F)(F)F)nc4C3)nc(OCC(O)CO)nc2s1 (stereo not drawn) [Example 6-23, 3-[6-Ethyl-4-(2-trifluoromethyl-5,6-dihydro-8H-imidazo[1,2-a]pyrazin-7-yl)-thieno[2,3-d]pyrimidin-2-yloxy]-propane-1,2-diol] was run?
Answer: Its IC50 is 12000 nM.

Question: CCc1cc2c(N3CCn4c(nnc4C(F)(F)F)C3)nc(C(=O)NCC(=O)O)nc2s1 [Example 4-4, {[6-Ethyl-4-(3-trifluoromethyl-5,6-dihydro-8H-[1,2,4]triazolo[4,3-a]pyrazin-7-yl)-thieno[2,3-d]pyrimidine-2-carbonyl]amino}acetic acid] was tested. Which IC50 did it give?
Answer: The IC50 was 1000 nM.

Question: Which IC50 does the source give for CCc1cc2c(N3CCc4c(nc(C)nc4C(F)(F)F)C3)nc(N3CCNC(=O)C3)nc2s1 [Example 6-34, 4-[6-Ethyl-4-(2-methyl-4-trifluoromethyl-5,8-dihydro-6H-pyrido[3,4-d]pyrimidin-7-yl)-thieno[2,3-d]pyrimidin-2-yl]-piperazin-2-one] here?
Answer: Its IC50 is 120 nM.

Question: CCc1cc2c(N3CCc4c([nH]c5ccccc45)C3)nc(N3CCNC(=O)C3)nc2s1 [Example 6-29, 4-[6-Ethyl-4-(1,3,4,9-tetrahydro-beta-carbolin-2-yl)-thieno[2,3-d]pyrimidin-2-yl]-piperazin-2-one] was tested. Which IC50 did it give?
Answer: Its IC50 is 29800 nM.

Question: How did the IC50 turn out when CCc1cc2c(N3CCn4cc(C(F)(F)F)nc4C3)nc(N3CCNC(=O)C3)nc2s1 [Example 6-22, 4-[6-Ethyl-4-(2-trifluoromethyl-5,6-dihydro-8H-imidazo[1,2-a]pyrazin-7-yl)-thieno[2,3-d]pyrimidin-2-yl]-piperazin-2-one] was run?
Answer: Its IC50 is 10000 nM.

Question: For CCc1nc2c(N3CCn4c(nnc4C(F)(F)F)C3)nc(N3CCN(C)CC3)nc2s1 [Example 5-3, 2-Ethyl-5-(4-methyl-piperazin-1-yl)-7-(3-trifluoromethyl-5,6-dihydro-8H-[1,2,4]triazolo[4,3-a]pyrazin-7-yl)-thiazolo[5,4-d]pyrimidine], which IC50 is on record?
Answer: Its IC50 is 1150 nM.

Question: CCc1cc2c(N3CCn4c(nnc4C(F)(F)F)C3)nc(C(=O)NCCO)nc2s1 [Example 4-5, 6-Ethyl-4-(3-trifluoromethyl-5,6-dihydro-8H-[1,2,4]triazolo[4,3-a]pyrazin-7-yl)thieno[2,3-d]pyrimidine-2-carboxylic acid (2-hydroxy-ethyl)amide] was tested. Which IC50 did it give?
Answer: The IC50 was 1580 nM.

Question: How did the IC50 turn out when CCc1cc2c(N3CCn4c(nnc4C(F)(F)F)C3)nc(NCC(=O)O)nc2s1 [Example 2-9, [6-Ethyl-4-(3-trifluoromethyl-5,6-dihydro-8H-[1,2,4]triazolo[4,3-a]pyrazin-7-yl)-thieno[2,3-d]pyrimidin-2-ylamino]-acetic acid] was run?
Answer: The IC50 was 2170 nM.

Question: For CC(C)c1cc2c(N3CCn4c(nnc4C(F)(F)F)C3)nc(N3CCN(C)CC3)nc2s1 [Example 2-13, 7-[6-Isopropyl-2-(4-methyl-piperazin-1-yl)-thieno[2,3-d]pyrimidin-4-yl]-3-trifluoromethyl-5,6,7,8-tetrahydro-[1,2,4]triazolo[4,3-a]pyrazine], which IC50 is on record?
Answer: The IC50 was 1100 nM.

Question: How did the IC50 turn out when CCCc1cc2c(N3CCc4c(nc(C(F)(F)F)nc4C(F)(F)F)C3)nc(N3CCNC(=O)C3)nc2s1 [Example 6-33, 4-[4-(2,4-Bis-trifluoromethyl-5,8-dihydro-6H-pyrido[3,4-d]pyrimidin-7-yl)-6-propyl-thieno[2,3-d]pyrimidin-2-yl]-piperazin-2-one] was run?
Answer: Its IC50 is 2370 nM.

Question: Which IC50 does the source give for CCc1cc2c(N3CCc4c(nc(C)nc4C(F)(F)F)C3)nc(OCC(O)CO)nc2s1 (stereo not drawn) [Example 6-35, 3-[6-Ethyl-4-(2-methyl-4-trifluoromethyl-5,8-dihydro-6H-pyrido[3,4-d]pyrimidin-7-yl)-thieno[2,3-d]pyrimidin-2-yloxy]-propane-1,2-diol] here?
Answer: The IC50 was 2300 nM.

same assay, conditions: 30 μM compound; 1 nM [3H] 2-Mes-ADP

Question: With CCc1cc2c(N3CCc4c([nH]n(C)c4=O)C3)nc(N3CCNC(=O)C3)nc2s1 [Example 6-41, 6-[6-Ethyl-2-(3-oxo-piperazin-1-yl)-thieno[2,3-d]pyrimidin-4-yl]-2-methyl-1,2,4,5,6,7-hexahydro-pyrazolo[3,4-c]pyridin-3-one] as the compound, how does the inhibition at 30 µM read?
Answer: The inhibition at 30 µM was 23.6%.
